Laboratory results published in patent publication US8952024B2, “Herbicidal pyrimidone derivatives” (E I du Pont de Nemours and Company, priority 2009, dated 2015).

How the values were obtained:
Assay type in all cases: in vivo
Settings in all cases: Postemergence
[1] = tested on: bermudagrass (Cynodon dactylon); experiment: Test B pre-/postemergence plant response
Text: (§1) Seeds of plant species selected from blackgrass (Alopecurus myosuroides), downy bromegrass (Bromus tectorum), green foxtail (Setaria viridis), Italian ryegrass (Lolium multiflorum), wheat (Triticum aestivum), wild oat (Avena fatua), deadnettle (henbit deadnettle, Lamium amplexicaule), galium (catchweed bedstraw, Galium aparine), bermudagrass (Cynodon dactylon), Surinam grass (Brachiaria decumbens), cocklebur (Xanthium strumarium), corn (Zea mays), large crabgrass (Digitaria sanguinalis), woolly cupgrass (Eriochloa villosa), giant foxtail (Setaria faberii), goosegrass (Eleusine indica), johnsongrass (Sorghum halepense), kochia (Kochia scoparia), lambsquarters (Chenopodium album), morningglory (Ipomoea coccinea), nightshade (eastern black nightshade, Solanum ptycanthum), yellow nutsedge (Cyperus esculentus), pigweed (Amaranthus retroflexus), ragweed (common ragweed, Ambrosia elatior), Russian thistle (Salsola kali), soybean (Glycine max), sunflower (common oilseed sunflower, Helianthus annuus) and velvetleaf (Abutilon theophrasti) were planted into a blend of loam soil and sand and treated preemergence with test compounds formulated in a non-phytotoxic solvent mixture which included a surfactant.
(§2) At the same time, plants selected from these crop and weed species and also winter barley (Hordeum vulgare), canarygrass (Phalaris minor), chickweed (Stellaria media) and windgrass (Apera spica-venti) were planted in pots containing Redi-Earth® planting medium (Scotts Company, 14111 Scottslawn Road, Marysville, Ohio 43041) comprising spaghnum peat moss, vermiculite, wetting agent and starter nutrients and treated with postemergence applications of some of the test chemicals formulated in the same manner. Plants ranged in height from 2 to 18 cm (1- to 4-leaf stage) for postemergence treatments.
(§3) Treated plants and controls were maintained in a greenhouse for 13 to 15 days, after which time all treated plants were visually evaluated and compared to controls. Plant response ratings, summarized in Table B, are based on a scale of 0 to 100 where 0 is no effect and 100 is complete control. A dash (-) response means no test result.

[2] = tested on: Italian ryegrass (Lolium multiflorum); experiment: Test B pre-/postemergence plant response
Text: as §1, §2, §3

[3] = tested on: pigweed (Amaranthus retroflexus); experiment: Test B pre-/postemergence plant response
Text: as §1, §2, §3

[4] = tested on: giant foxtail (Setaria faberii); experiment: Test B pre-/postemergence plant response
Text: as §1, §2, §3

[5] = tested on: downy bromegrass (Bromus tectorum); experiment: Test B pre-/postemergence plant response
Text: as §1, §2, §3

[6] = tested on: green foxtail (Setaria viridis); experiment: Test B pre-/postemergence plant response
Text: as §1, §2, §3

[7] = tested on: goosegrass (Eleusine indica); experiment: Test B pre-/postemergence plant response
Text: as §1, §2, §3

[8] = tested on: velvetleaf (Abutilon theophrasti); experiment: Test B pre-/postemergence plant response
Text: as §1, §2, §3

[9] = tested on: ragweed (common ragweed, Ambrosia elatior); experiment: Test B pre-/postemergence plant response
Text: as §1, §2, §3

[10] = tested on: blackgrass (Alopecurus myosuroides); experiment: Test B pre-/postemergence plant response
Text: as §1, §2, §3

[11] = tested on: soybean (Glycine max); experiment: Test B pre-/postemergence plant response
Text: as §1, §2, §3

[12] = tested on: johnsongrass (Sorghum halepense); experiment: Test B pre-/postemergence plant response
Text: as §1, §2, §3

[13] = tested on: wheat (Triticum aestivum); experiment: Test B pre-/postemergence plant response
Text: as §1, §2, §3

[14] = tested on: corn (Zea mays); experiment: Test B pre-/postemergence plant response
Text: as §1, §2, §3

[15] = tested on: canarygrass (Phalaris minor); experiment: Test B postemergence plant response
Summary of the method: (§4)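 Visual ratings from 0 (no effect) to 100 (complete control), made against controls 13–15 days after treatment, kept in a greenhouse. Compounds were applied postemergence to potted plants at the 1- to 4-leaf stage (2–18 cm).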

[16] = tested on: winter barley (Hordeum vulgare); experiment: Test B postemergence plant response
Summary of the method: as §4

[17] = tested on: chickweed (Stellaria media); experiment: Test B postemergence plant response
Summary of the method: as §4

[18] = 31 g ai/ha, 0 to 100 scale (0 no effect, 100 complete control)
[19] = 125 g ai/ha, scale 0 (no effect) to 100 (complete control), 13 to 15 days
[20] = 250 g ai/ha, scale 0 to 100 (0 no effect, 100 complete control), 13 to 15 days
[21] = 62 g ai/ha, scale 0 to 100 (0 no effect, 100 complete control)

CCCCn1c(-c2ccccc2)ncc(C(=O)C2=C(O)C3CCC(C3)C2=O)c1=O (stereo not drawn) [Compound 240]
Plant response rating, Bermudagrass [1, 18]: 98 | Plant response rating, Bermudagrass [1, 19]: 100 | Plant response rating, Bermudagrass [1, 20]: 100 | Plant response rating, Bermudagrass [1, 21]: 100 | Plant response rating, Ryegrass, Italian [2, 18]: 10 | Plant response rating, Ryegrass, Italian [2, 19]: 40 | Plant response rating, Ryegrass, Italian [2, 20]: 40 | Plant response rating, Ryegrass, Italian [2, 21]: 15 | Plant response rating, Pigweed [3, 19]: 100 | Plant response rating, Pigweed [3, 20]: 100 | Plant response rating, Pigweed [3, 21]: 100 | Plant response rating, Foxtail, Giant [4, 18]: 100 | Plant response rating, Foxtail, Giant [4, 19]: 100 | Plant response rating, Foxtail, Giant [4, 20]: 100 | Plant response rating, Foxtail, Giant [4, 21]: 100 | Plant response rating, Bromegrass, Downy [5, 18]: 10 | Plant response rating, Bromegrass, Downy [5, 19]: 25 | Plant response rating, Bromegrass, Downy [5, 20]: 50 | Plant response rating, Bromegrass, Downy [5, 21]: 20 | Plant response rating, Foxtail, Green [6, 18]: 90 | Plant response rating, Foxtail, Green [6, 19]: 95 | Plant response rating, Foxtail, Green [6, 20]: 98 | Plant response rating, Foxtail, Green [6, 21]: 90 | Plant response rating, Goosegrass [7, 18]: 95 | Plant response rating, Goosegrass [7, 19]: 98 | Plant response rating, Goosegrass [7, 20]: 98 | Plant response rating, Goosegrass [7, 21]: 98 | Plant response rating, Velvetleaf [8, 18]: 75 | Plant response rating, Velvetleaf [8, 19]: 85 | Plant response rating, Velvetleaf [8, 20]: 100 | Plant response rating, Velvetleaf [8, 21]: 85 | Plant response rating, Ragweed [9, 18]: 98 | Plant response rating, Ragweed [9, 19]: 100 | Plant response rating, Ragweed [9, 20]: 100 | Plant response rating, Ragweed [9, 21]: 98 | Plant response rating, Blackgrass [10, 18]: 40 | Plant response rating, Blackgrass [10, 19]: 65 | Plant response rating, Blackgrass [10, 20]: 65 | Plant response rating, Blackgrass [10, 21]: 50 | Plant response rating, Soybean [11, 18]: 95 | Plant response rating, Soybean [11, 19]: 95 | Plant response rating, Soybean [11, 20]: 100 | Plant response rating, Soybean [11, 21]: 95 | Plant response rating, Johnsongrass [12, 19]: 100 | Plant response rating, Johnsongrass [12, 20]: 100 | Plant response rating, Johnsongrass [12, 21]: 100 | Plant response rating, Wheat [13, 18]: 30 | Plant response rating, Wheat [13, 19]: 50 | Plant response rating, Wheat [13, 20]: 50 | Plant response rating, Wheat [13, 21]: 35 | Plant response rating, Corn [14, 18]: 90 | Plant response rating, Corn [14, 19]: 100 | Plant response rating, Corn [14, 20]: 100 | Plant response rating, Corn [14, 21]: 95 | Plant response rating, Canarygrass [15, 18]: 5 | Plant response rating, Canarygrass [15, 19]: 30 | Plant response rating, Canarygrass [15, 20]: 40 | Plant response rating, Canarygrass [15, 21]: 5 | Plant response rating, Barley [16, 18]: 5 | Plant response rating, Barley [16, 19]: 15 | Plant response rating, Barley [16, 20]: 15 | Plant response rating, Barley [16, 21]: 5 | Plant response rating, Chickweed [17, 18]: 90 | Plant response rating, Chickweed [17, 19]: 100 | Plant response rating, Chickweed [17, 20]: 100 | Plant response rating, Chickweed [17, 21]: 98
